# Experimental data: the supplement of paper PMC10307832
# Assays:
# Assay in all cases: relative viability (nuclei count vs DMSO), 5 days (fraction); higher = more cells survive
# A-427 = tested on: A-427
# Outline: (§1)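 For relative viability, nuclei counts in treated wells were divided by those in vehicle wells. Lung cancer cell lines had been pin-tool dosed in 1536-well plates the day after seeding and cultured for 5 days, then fixed and stained in one step (final 0.05% Triton X-100, 1% formaldehyde, 1 ug/ml Hoechst) and imaged at 4×. Doses were one drug alone or a fixed anchor-drug dose plus five library-drug doses (not always all listed) in √10 steps, and values are duplicate-plate medians.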
# HCC-15 = tested on: HCC-15
# Outline: as §1
# HCC-78 = tested on: HCC-78
# Outline: as §1
# HOP-62 = tested on: HOP-62
# Outline: as §1
# LC-2-ad = tested on: LC-2-ad
# Outline: as §1
# LXF-289 = tested on: LXF-289
# Outline: as §1
# NCI-H1734 = tested on: NCI-H1734
# Outline: as §1
# NCI-H1755 = tested on: NCI-H1755
# Outline: as §1
# NCI-H1792 = tested on: NCI-H1792
# Outline: as §1
# NCI-H1915 = tested on: NCI-H1915
# Outline: as §1
# NCI-H1975 = tested on: NCI-H1975
# Outline: as §1
# NCI-H2126 = tested on: NCI-H2126
# Outline: as §1
# NCI-H2228 = tested on: NCI-H2228
# Outline: as §1
# NCI-H2347 = tested on: NCI-H2347
# Outline: as §1
# NCI-H358 = tested on: NCI-H358
# Outline: as §1
# NCI-H647 = tested on: NCI-H647
# Outline: as §1
# PC-3 [JPC-3] = tested on: PC-3 [JPC-3]
# Outline: as §1
# RERF-LC-KJ = tested on: RERF-LC-KJ
# Outline: as §1
# SK-LU-1 = tested on: SK-LU-1
# Outline: as §1
# SW 1573 = tested on: SW 1573
# Outline: as §1
smiles,measurement,setting,value
COc1cc2nccc(Oc3ccc(NC(=O)Nc4cc(C)on4)c(Cl)c3)c2cc1OC [Tivozanib] + CS(=O)(=O)N1CCN(Cc2cc3nc(-c4cccc5[nH]ncc45)nc(N4CCOCC4)c3s2)CC1 [Pictilisib] (partner 1 µM),relative viability,A-427; first compound 0.005 µM,0.656
same,relative viability,A-427; first compound 0.01581 µM,0.746
same,relative viability,A-427; first compound 0.05 µM,0.705
same,relative viability,A-427; first compound 0.1581 µM,0.511
same,relative viability,A-427; first compound 0.5 µM,0.71
same,relative viability,HCC-15; first compound 0.005 µM,0.631
same,relative viability,HCC-15; first compound 0.01581 µM,0.641
same,relative viability,HCC-15; first compound 0.05 µM,0.719
same,relative viability,HCC-15; first compound 0.1581 µM,0.588
same,relative viability,HCC-15; first compound 0.5 µM,0.717
same,relative viability,HCC-78; first compound 0.005 µM,0.188
same,relative viability,HCC-78; first compound 0.01581 µM,0.235
same,relative viability,HCC-78; first compound 0.05 µM,0.207
same,relative viability,HCC-78; first compound 0.1581 µM,0.14
same,relative viability,HCC-78; first compound 0.5 µM,0.206
same,relative viability,HOP-62; first compound 0.005 µM,0.579
same,relative viability,HOP-62; first compound 0.01581 µM,0.744
same,relative viability,HOP-62; first compound 0.05 µM,0.708
same,relative viability,HOP-62; first compound 0.1581 µM,0.368
same,relative viability,HOP-62; first compound 0.5 µM,0.649
same,relative viability,LC-2-ad; first compound 0.005 µM,0.417
same,relative viability,LC-2-ad; first compound 0.01581 µM,0.353
same,relative viability,LC-2-ad; first compound 0.05 µM,0.263
same,relative viability,LC-2-ad; first compound 0.1581 µM,0.204
same,relative viability,LC-2-ad; first compound 0.5 µM,0.159
same,relative viability,LXF-289; first compound 0.005 µM,0.736
same,relative viability,LXF-289; first compound 0.01581 µM,0.814
same,relative viability,LXF-289; first compound 0.05 µM,0.758
same,relative viability,LXF-289; first compound 0.1581 µM,0.764
same,relative viability,LXF-289; first compound 0.5 µM,0.807
same,relative viability,NCI-H1734; first compound 0.005 µM,0.45
same,relative viability,NCI-H1734; first compound 0.01581 µM,0.443
same,relative viability,NCI-H1734; first compound 0.05 µM,0.456
same,relative viability,NCI-H1734; first compound 0.1581 µM,0.359
same,relative viability,NCI-H1734; first compound 0.5 µM,0.442
same,relative viability,NCI-H1755; first compound 0.005 µM,0.365
same,relative viability,NCI-H1755; first compound 0.01581 µM,0.402
same,relative viability,NCI-H1755; first compound 0.05 µM,0.453
same,relative viability,NCI-H1755; first compound 0.1581 µM,0.405
same,relative viability,NCI-H1755; first compound 0.5 µM,0.396
same,relative viability,NCI-H1792; first compound 0.005 µM,0.248
same,relative viability,NCI-H1792; first compound 0.01581 µM,0.27
same,relative viability,NCI-H1792; first compound 0.05 µM,0.289
same,relative viability,NCI-H1792; first compound 0.1581 µM,0.283
same,relative viability,NCI-H1792; first compound 0.5 µM,0.274
same,relative viability,NCI-H1915; first compound 0.005 µM,0.936
same,relative viability,NCI-H1915; first compound 0.01581 µM,0.995
same,relative viability,NCI-H1915; first compound 0.05 µM,0.901
same,relative viability,NCI-H1915; first compound 0.1581 µM,0.485
same,relative viability,NCI-H1915; first compound 0.5 µM,0.742
same,relative viability,NCI-H1975; first compound 0.005 µM,0.278
same,relative viability,NCI-H1975; first compound 0.01581 µM,0.277
same,relative viability,NCI-H1975; first compound 0.05 µM,0.271
same,relative viability,NCI-H1975; first compound 0.1581 µM,0.234
same,relative viability,NCI-H1975; first compound 0.5 µM,0.275
same,relative viability,NCI-H2126; first compound 0.005 µM,0.41
same,relative viability,NCI-H2126; first compound 0.01581 µM,0.533
same,relative viability,NCI-H2126; first compound 0.05 µM,0.489
same,relative viability,NCI-H2126; first compound 0.1581 µM,0.36
same,relative viability,NCI-H2126; first compound 0.5 µM,0.469
same,relative viability,NCI-H2228; first compound 0.005 µM,0.402
same,relative viability,NCI-H2228; first compound 0.01581 µM,0.421
same,relative viability,NCI-H2228; first compound 0.05 µM,0.528
same,relative viability,NCI-H2228; first compound 0.1581 µM,0.297
same,relative viability,NCI-H2228; first compound 0.5 µM,0.514
same,relative viability,NCI-H2347; first compound 0.005 µM,0.599
same,relative viability,NCI-H2347; first compound 0.01581 µM,0.53
same,relative viability,NCI-H2347; first compound 0.05 µM,0.846
same,relative viability,NCI-H2347; first compound 0.1581 µM,0.344
same,relative viability,NCI-H2347; first compound 0.5 µM,0.727
same,relative viability,NCI-H358; first compound 0.005 µM,0.345
same,relative viability,NCI-H358; first compound 0.01581 µM,0.332
same,relative viability,NCI-H358; first compound 0.05 µM,0.386
same,relative viability,NCI-H358; first compound 0.1581 µM,0.254
same,relative viability,NCI-H358; first compound 0.5 µM,0.367
same,relative viability,NCI-H647; first compound 0.005 µM,0.419
same,relative viability,NCI-H647; first compound 0.01581 µM,0.438
same,relative viability,NCI-H647; first compound 0.05 µM,0.402
same,relative viability,NCI-H647; first compound 0.1581 µM,0.296
same,relative viability,NCI-H647; first compound 0.5 µM,0.227
same,relative viability,PC-3 [JPC-3]; first compound 0.005 µM,0.705
same,relative viability,PC-3 [JPC-3]; first compound 0.01581 µM,0.698
same,relative viability,PC-3 [JPC-3]; first compound 0.05 µM,0.757
same,relative viability,PC-3 [JPC-3]; first compound 0.1581 µM,0.604
same,relative viability,PC-3 [JPC-3]; first compound 0.5 µM,0.706
same,relative viability,RERF-LC-KJ; first compound 0.005 µM,0.509
same,relative viability,RERF-LC-KJ; first compound 0.01581 µM,0.471
same,relative viability,RERF-LC-KJ; first compound 0.05 µM,0.533
same,relative viability,RERF-LC-KJ; first compound 0.1581 µM,0.356
same,relative viability,RERF-LC-KJ; first compound 0.5 µM,0.586
same,relative viability,SK-LU-1; first compound 0.005 µM,0.618
same,relative viability,SK-LU-1; first compound 0.01581 µM,0.465
same,relative viability,SK-LU-1; first compound 0.05 µM,0.483
same,relative viability,SK-LU-1; first compound 0.1581 µM,0.336
same,relative viability,SK-LU-1; first compound 0.5 µM,0.55
same,relative viability,SW 1573; first compound 0.005 µM,0.448
same,relative viability,SW 1573; first compound 0.01581 µM,0.479
same,relative viability,SW 1573; first compound 0.05 µM,0.505
same,relative viability,SW 1573; first compound 0.1581 µM,0.346
same,relative viability,SW 1573; first compound 0.5 µM,0.406
